Where “and” joins values, the source holds several entries; their conditions need not be identical. Equal values may be shown once. Positions of bridges follow the written chain, without caps; N, C: chain ends. Non-standard residues stand in square brackets, D forms with d. Residues, ends and D or L forms follow the SMILES beside them.
How the values were obtained:
[1] = system: B16/F1 murine melanoma cells; test: Cellular internalization and efflux; type: cell-based; set-up: concentration or dose not given beside the values; conditions: for Activity internalized in the B16/F1 cells: 25° C.; for Cellular efflux: activity remained inside the cells: 2 h after incubating cells in culture medium
Method: Cellular internalization and efflux of ^99mTc-RGD-Lys-(Arg^11)CCMSH was evaluated in B16/F1 cells as previously described by Miao et al (27). After being washed once with binding media, B16/F1 cells in 24-well cell culture plates were incubated at 25° C. for 20, 40, 60, 90 and 120 min (n=4) in the presence of approximately 200,000 cpm of HPLC purified ^99mTc-RGD-Lys-(Arg^11)CCMSH. After incubation, the reaction media were aspirated and the cells were rinsed twice with 0.5 ml of ice-cold pH 7.4, 0.2% BSA/0.01 M PBS. Cellular internalization of ^99mTc-RGD-Lys-(Arg^11)CCMSH was assessed by washing the cells with acidic buffer [40 mM sodium acetate (pH 4.5) containing 0.9% NaCl and 0.2% BSA] to remove the membrane-bound radioactivity. The remaining internalized radioactivity was obtained by lysing the cells with 0.5 ml of 1 N NaOH for 5 min. Membrane-bound and internalized ^99mTc activities were counted in a gamma counter. Cellular efflux of ^99mTc-RGD-Lys-(Arg^11)CCMSH was determined by incubating B16/F1 cells with ^99mTc-RGD-Lys-(Arg^11)CCMSH for 2 h at 25° C., removing non-specific-bound radioactivity with 2×0.5 ml of ice-cold pH 7.4, 0.2% BSA/0.01 M PBS rinse, and monitoring radioactivity released into cell culture media. At time points of […], the radioactivities in media, on cell surface and in cells were separately collected and counted in a gamma counter.
Cellular internalization and efflux of ^99mTc-RGD-Arg-(Arg^11)CCMSH was evaluated in B16/F1 cells as previously described by Yang et al (17). After being washed once with binding medium, B16/F1 cells in 24-well cell culture plates were incubated at 25° C. for 20, 40, 60, 90 and 120 min (n=3) in the presence of approximately 200,000 cpm of HPLC purified 99″Tc-RGD-Arg-(Arg^11)CCMSH. After incubation, the reaction medium was aspirated and the cells were rinsed twice with 0.5 mL of ice-cold pH 7.4, 0.2% BSA/0.01 M PBS. Cellular internalization of ^99mTc-RGD-Arg-(Arg^11)CCMSH was assessed by washing the cells with acidic buffer [40 mM sodium acetate (pH 4.5) containing 0.9% NaCl and 0.2% BSA] to remove the membrane-bound radioactivity. The remaining internalized radioactivity was obtained by lysing the cells with 0.5 mL of 1 N NaOH for 5 min. Membrane-bound and internalized ^99mTc activities were counted in a gamma counter. Cellular efflux of ^99mTc-RGD-Arg-(Arg^11)CCMSH was determined by incubating B16/F1 cells with ^99mTc-RGD-Arg-(Arg^11)CCMSH for 2 h at 25° C., removing non-specific-bound radioactivity with 2×0.5 mL of ice-cold pH 7.4, 0.2% BSA/0.01 M PBS rinse, and monitoring radioactivity released into cell culture medium. At time points of 20, 40, 60, 90 and 120 min, the radioactivities on cell surface and in cells were separately collected and counted in a gamma counter.

[2] = system: B16/F1 murine melanoma cells; test: Specificity of cellular uptake (peptide blockade); type: cell-based; conditions: rather than αvβ3 integrin-mediated
Method: The specificity of cell binding was determined by incubating ^99mTc-RGD-Lys-(Arg^11)CCMSH with or without non-radioactive peptides. After being washed once with binding media, B16/F1 cells in 24-well cell culture plates were incubated with approximately 200,000 cpm of HPLC purified ^99mTc-RGD-Lys-(Arg^11)CCMSH at 25° C. for 120 min (n=4) in the presence of 0.1 μM of RGD-Lys-(Arg^11)CCMSH, NDP-MSH, (Arg^11)CCMSH or RGD in 0.5 ml of binding media, respectively. The reaction media were aspirated after the incubation. The cells were rinsed twice with 0.5 ml of ice-cold pH 7.4, 0.2% BSA/0.01 M PBS and lysed in 0.5 ml of 1 N NaOH for 5 min. The activities associated with cells were measured in a gamma counter. Statistical analysis was performed using the Student's t-test for unpaired data.
The specificity of cellular uptake was determined by incubating ^99mTc-RGD-Arg-(Arg^11)CCMSH with or without non-radioactive peptides. After being washed once with binding medium, B16/F1 cells in 24-well cell culture plates were incubated with approximately 200,000 cpm of HPLC purified ^99mTc-RGD-Arg-(Arg^11)CCMSH at 25° C. for 120 min (n=3) in the presence of 0.1 μM of RGD-Arg-(Arg^11)CCMSH, (Arg^11)CCMSH, RGD or no peptide blockade in 0.5 mL of binding medium, respectively. The reaction medium was aspirated after the incubation. The cells were rinsed twice with 0.5 mL of ice-cold pH 7.4, 0.2% BSA/0.01 M PBS and lysed in 0.5 mL of 1 N NaOH for 5 min. The activities associated with cells were measured in a gamma counter.

B16/F1 melanoma = test: SPECT/CT imaging of melanoma; type: in vivo, C57 mouse; conditions: 2 h post-injection
Method: (§1) A B16/F1 melanoma-bearing C57 mouse was injected with 10.4 MBq of ^99mTc-RGD-Lys-(Arg^11)CCMSH via the tail vein. The mouse was anesthetized with 1.5% isoflurane for small animal SPECT/CT (Nano-SPECT/CT®, Bioscan) imaging 2 h post-injection. The 9-min CT imaging was immediately followed by the SPECT imaging of whole-body. The SPECT scans of 24 projections were acquired and total acquisition time was approximately 45 min. After the SPECT imaging, the mouse was euthanized with CO2 inhalation. Reconstructed data from SPECT and CT were visualized and co-registered using InVivoScope (Bioscan, Washington D.C.).
as §1, with “6.1” for “10.4”, “^99mTc-RGD-Arg-(Arg^11)CCMSH” for “^99mTc-RGD-Lys-(Arg^11)CCMSH”, “9-min.” for “9-min”

SMILES | Activity internalized in the B16/F1 cells ([1]; 20 min post incubation) [%] | Cellular efflux: activity remained inside the cells [1] | Activity internalized in the B16/F1 cells ([1]; 2 h incubation) [%] | Mechanism of cellular uptake [2] | Visualization of flank melanoma tumors by SPECT/CT (B16/F1 melanoma)
CC(C)[C@H](NC(=O)[C@@H]1CCCN1C(=O)[C@H](CCCNC(=N)N)NC(=O)[C@H](CS)NC(=O)[C@H](Cc1c[nH]c2ccccc12)NC(=O)[C@H](CCCNC(=N)N)NC(=O)[C@@H](Cc1ccccc1)NC(=O)[C@H](Cc1c[nH]cn1)NC(=O)[C@H](CCC(=O)O)NC(=O)[C@H](CS)NC(=O)[C@H](CS)NC(=O)[C@H](CCCNC(=N)N)NC(=O)[C@@H]1CC(=O)N[C@@H](CCCNC(=N)N)C(=O)NCC(=O)N[C@@H](CC(=O)O)C(=O)N[C@H](Cc2ccc(O)cc2)C(=O)N1)C(N)=O [^99mTc-RGD-Arg-(Arg^11)CCMSH, metal not drawn] (RGD[dY]DRCCEH[dF]RWCRPV-NH2; lactam N-5) | 62.35±4.08 | 58.99±2.03% | 81.36±0.96 | MC1 receptor-mediated | visualized clearly
CC(C)[C@H](NC(=O)[C@@H]1CCCN1C(=O)[C@H](CCCNC(=N)N)NC(=O)[C@H](CS)NC(=O)[C@H](Cc1c[nH]c2ccccc12)NC(=O)[C@H](CCCNC(=N)N)NC(=O)[C@@H](Cc1ccccc1)NC(=O)[C@H](Cc1c[nH]cn1)NC(=O)[C@H](CCC(=O)O)NC(=O)[C@H](CS)NC(=O)[C@H](CS)NC(=O)[C@H](CCCCN)NC(=O)[C@@H]1CC(=O)N[C@@H](CCCNC(=N)N)C(=O)NCC(=O)N[C@@H](CC(=O)O)C(=O)N[C@H](Cc2ccc(O)cc2)C(=O)N1)C(N)=O [^99mTc-RGD-Lys-(Arg^11)CCMSH, metal not drawn] (RGD[dY]DKCCEH[dF]RWCRPV-NH2; lactam N-5) | – | 68.57±3.77% and ~69% | 85.93±1.22 | MC1 receptor-mediated | visualized clearly

Source: patent publication US9005575B2, “Arg-Gly-Asp-conjugated alpha-melanocyte stimulating hormone hybrid peptide for use in diagnosing and treating melanoma, including metastatic melanoma and methods related to same” (STC.UNM, priority 2009, dated 2015)
